Test results taken from paper PMC1933452, “Molecular Basis of Resistance to Muramidase and Cationic Antimicrobial Peptide Activity of Lysozyme in Staphylococci” (PLoS Pathogens, 2007).
Where “and” joins values, the source holds several entries; their conditions need not be identical. Equal values may be shown once. Read-outs that look alike come from different tables or passages of the source. Where a SMILES comes first, the peptide text is derived from it. Bridges are numbered along the chain shown (N, C = ends). Where no end group is shown, it is not given here. [ ]: non-standard residue; d: D form. The star is where a group is joined. X1 = CC[C@H](C)CCCCC(=O)*; Dab = NCC[C@H](N)C(=O)O

How the values were obtained:
SA113 = assay type: cell-based, Staphylococcus aureus; details: for MIC: SA113, serial dilution, BM without glucose with 0.5% xylose, 37 °C, 20–24 h, mean of three to five independent experiments
Protocol: (§1) The overnight cultures were diluted in BM with 0.5% xylose to a concentration of 0.5 × 10^6 CFU per ml and aliquoted in 0.5-ml samples, and cationic agents in different concentrations were added.

graRS::erm = assay: MIC assay, graRS mutant; assay type: cell-based, Staphylococcus aureus; details: for Susceptibility of graRS mutant relative to WT: from MIC values; for MIC: graRS::erm, serial dilution, BM without glucose with 0.5% xylose, 37 °C, 20–24 h, mean of three to five independent experiments
Protocol: as §1

oatA::kan = assay: MIC assay, oatA mutant; assay type: cell-based, Staphylococcus aureus; details: serial dilution, BM without glucose with 0.5% xylose, 37 °C, 20–24 h, mean of three to five independent experiments
Protocol: as §1

oatA::kan/graRS::erm = assay: MIC assay, oatA/graRS double mutant; assay type: cell-based, Staphylococcus aureus; details: for MIC: oatA::kan/graRS::erm, serial dilution, BM without glucose with 0.5% xylose, 37 °C, 20–24 h, mean of three to five independent experiments
Protocol: as §1

dltA::spc = assay: MIC assay, dltA mutant; assay type: cell-based, Staphylococcus aureus; details: for MIC: dltA::spc, serial dilution, BM without glucose with 0.5% xylose, 37 °C, 20–24 h, mean of three to five independent experiments
Protocol: as §1

oatA::kan/dltA::spc = assay: MIC assay, oatA/dltA double mutant; assay type: cell-based, Staphylococcus aureus; details: for MIC: oatA::kan/dltA::spc, serial dilution, BM without glucose with 0.5% xylose, 37 °C, 20–24 h, mean of three to five independent experiments
Protocol: as §1

graRS::erm (pTXgraRS) = assay: MIC assay, complemented graRS mutant; assay type: cell-based, Staphylococcus aureus; details: for MIC: graRS::erm (pTXgraRS), serial dilution, BM without glucose with 0.5% xylose as inductor, 37 °C, 20–24 h, mean of three to five independent experiments
Protocol: as §1

SA113 (pTXgraRS) = assay: MIC assay, WT overexpressing graRS; assay type: cell-based, Staphylococcus aureus; details: for MIC: SA113 (pTXgraRS), serial dilution, BM without glucose with 0.5% xylose as inductor, 37 °C, 20–24 h, mean of three to five independent experiments
Protocol: as §1

WT SA113 = assay: Effects of cationic agents on exponential growth, WT; assay type: cell-based, Staphylococcus aureus; details: WT SA113, BM 37 °C, agent added at OD578nm 1.0; Lys or heat-inactivated Lys 300 μg/ml, LP9 200 μg/ml, PMB 20 μg/ml, Gdm 8 μg/ml
Protocol: (§2) Overnight cultures were diluted to an OD578nm of 0.1 in 50 ml of BM and the cultures were incubated with shaking at 37 °C. OD was determined every hour. Ten milliliters of each culture were transferred into a new 100-ml flask when the cultures reached an OD578nm of nearly 1.0. Then, cationic agents, such as hen egg-white lysozyme and human lysozyme (Sigma-Aldrich, http://www.sigmaaldrich.com/), LP9 (a lysozyme-derived 9-aa peptide, 107R-A-W-V-A-W-R-N-R115–NH2) (EMC, http://www.microcollections.de/), polymyxin B (Sigma-Aldrich), gallidermin (Genmedics, http://www.genmedics.com/), or mutanolysin (Sigma), were added. Lysozyme was inactivated by heating for 1 h at 100 °C and placed on ice. The OD578nm of all cultures was measured hourly up to 7–8 h and after 24 h.

graRS mutant = assay: Effects of cationic agents on exponential growth, graRS mutant; assay type: cell-based, Staphylococcus aureus; details: PMB 20 μg/ml; for Susceptibility of growing culture (OD578nm) / Resumption of growth in the presence of the CAMP: graRS mutant, Gdm 8 μg/ml; for Susceptibility of growing culture (OD578nm): BM 37 °C, agent added at OD578nm 1.0, Lys or heat-inactivated Lys 300 μg/ml, LP9 200 μg/ml; for Resumption of growth in the presence of the CAMP: up to 24 h
Protocol: as §2

dltA mutant = assay: Effects of cationic agents on exponential growth, dltA mutant; assay type: cell-based, Staphylococcus aureus; details: LP9 200 μg/ml, PMB 20 μg/ml, Gdm 8 μg/ml; for Susceptibility of growing culture (OD578nm): BM 37 °C, agent added at OD578nm 1.0, Lys or heat-inactivated Lys 300 μg/ml; for Resumption of growth in the presence of the CAMP: up to 24 h
Protocol: as §2

oatA mutant = assay: Effects of cationic agents on exponential growth, oatA mutant; assay type: cell-based, Staphylococcus aureus; details: BM 37 °C, agent added at OD578nm 1.0, Lys or heat-inactivated Lys 300 μg/ml, LP9 200 μg/ml
Protocol: as §2

oatA/graRS mutant = assay: Effects of cationic agents on exponential growth, oatA/graRS mutant; assay type: cell-based, Staphylococcus aureus; details: BM 37 °C, agent added at OD578nm 1.0, Lys 50 μg/ml, heat-inactivated Lys 300 μg/ml, LP9 200 μg/ml
Protocol: as §2

[1] = test system: PG isolated from oatA mutant; assay: Turbidometric assay of PG, oatA mutant; assay type: biochemical, Staphylococcus aureus; details: PG of oatA mutant 0.5 mg/ml, 300 μg/ml, 80 mM PBS pH 6.4, 4 h
Protocol: (§3) One liter of BM was inoculated with an overnight culture of the WT SA113 or the mutants. Strains were grown for 12 h with shaking at 37 °C. Cells were centrifuged, washed two times with cold 0.9% NaCl, diluted in 0.9% NaCl, and boiled for 20 min. After the cells were chilled on ice, they were again centrifuged and washed twice with 0.9% NaCl. The cells were disrupted in a mechanical grinding device using glass beads ∅150–212 μm (Sigma-Aldrich) at 4 °C, centrifuged and washed two times with cold H2Obidest, boiled for 30 min in 2% SDS to remove noncovalently bound proteins, and washed four times with H2Obidest. The cell wall fragments were diluted in 0.1 M Tris/HCl (pH 6.8) and incubated with 0.5 mg/ml trypsin for 16 h at 37 °C to degrade cell-bound proteins. After centrifugation and washing with water, the PG was lyophilized.
(§4) For analyzing the susceptibility of PG to lysozyme, we used a modified method turbidometric assay as described by Clarke. The PG of the WT SA113 and the mutants were sonicated and diluted to 0.5 mg in 1 ml of 80 mM PBS (pH 6.4). After the addition of 300 μg lysozyme per ml, the decrease in optical density was monitored at the beginning (0 h) and after 4 h at OD660nm and calculated as percentages.

oatA/dltA mutant = assay: Effects of cationic agents on exponential growth, oatA/dltA mutant; assay type: cell-based, Staphylococcus aureus; details: BM 37 °C, agent added at OD578nm 1.0, Lys 20 μg/ml, LP9 200 μg/ml
Protocol: as §2

[2] = test system: PG isolated from graRS mutant; assay: Turbidometric assay of PG, graRS mutant; assay type: biochemical, Staphylococcus aureus; details: PG of graRS mutant 0.5 mg/ml, 300 μg lysozyme per ml, 80 mM PBS pH 6.4, 4 h
Protocol: as §3, §4

[3] = test system: PG isolated from oatA/graRS double mutant; assay: Turbidometric assay of PG, oatA/graRS mutant; assay type: biochemical, Staphylococcus aureus; details: PG of oatA/graRS double mutant 0.5 mg/ml, 300 μg lysozyme per ml, 80 mM PBS pH 6.4, 4 h
Protocol: as §3, §4

[4] = test system: PG isolated from dltA mutant; assay: Turbidometric assay of PG, dltA mutant; assay type: biochemical, Staphylococcus aureus; details: PG of dltA mutant 0.5 mg/ml, 300 μg lysozyme per ml, 80 mM PBS pH 6.4, 4 h
Protocol: as §3, §4

| Compound | MIC (SA113; 0.5 × 10^6 CFU per ml) | MIC (SA113) | Susceptibility of graRS mutant relative to WT (graRS::erm) | MIC (graRS::erm) | MIC (oatA::kan) | MIC (oatA::kan/graRS::erm) | MIC (dltA::spc) | MIC (oatA::kan/dltA::spc) | MIC (graRS::erm (pTXgraRS)) | MIC (SA113 (pTXgraRS)) | Susceptibility of growing culture (OD578nm) (WT SA113) | Susceptibility of growing culture (OD578nm) (graRS mutant) | Resumption of growth in the presence of the CAMP (graRS mutant) | Susceptibility of growing culture (OD578nm) (dltA mutant) | Resumption of growth in the presence of the CAMP (dltA mutant) | Susceptibility of growing culture (OD578nm) (oatA mutant) | Susceptibility of growing culture (OD578nm) (oatA/graRS mutant) | Hydrolysis of isolated PG (decrease in OD660nm) [1] | other results |
| --- | --- | --- | --- | --- | --- | --- | --- | --- | --- | --- | --- | --- | --- | --- | --- | --- | --- | --- | --- |
| gallidermin (IASKFLCTPGCAKTGSFNSYCC; cysteine pairing not given here; also: lantibiotic; UniProt P21838 31-52, looked up) [lantibiotic, CAMP (Genmedics)] | 9 µg/mL | 4.1 µM | 4 fold | 2.5 μg/ml and 1.14 μM | 9 μg/ml and 4.1 μM | 3 μg/ml and 1.36 μM | 1.2 μg/ml and 0.55 μM | 1.2 μg/ml and 0.55 μM | 9 μg/ml and 4.1 μM | 9 μg/ml and 4.1 μM | inhibited the WT | immediate growth arrest | started to grow after some time | more susceptible | unable to resume growth |  |  |  |  |
| Heat-inactivated lysozyme: Catalytic inactive lysozyme, inactivated by heating for 1 h at 100 °C |  |  |  |  |  |  |  |  |  |  | completely insensitive | does not affect |  | inhibited |  | no activity | able to inhibit the growth | no activity |  |
| CC[C@H](C)CCCCC(=O)N[C@@H](CCN)C(=O)N[C@H](C(=O)N[C@@H](CCN)C(=O)N[C@H]1CCNC(=O)[C@H]([C@@H](C)O)NC(=O)[C@H](CCN)NC(=O)[C@H](CCN)NC(=O)[C@H](CC(C)C)NC(=O)[C@@H](Cc2ccccc2)NC(=O)[C@H](CCN)NC1=O)[C@@H](C)O [Polymyxin B, polymyxin B] (X1-[Dab]T[Dab][Dab][Dab][dF]L[Dab][Dab]T; lactam 4-C (inferred); N-terminus assumed) | 350 µg/mL | 252.5 µM | 17 fold | 20 μg/ml and 14.4 μM | 350 μg/ml and 252.5 μM | 25 μg/ml and 18 μM | 10 μg/ml and 7.2 μM | 10 μg/ml and 7.2 μM | >800 µg/mL | >500 µg/mL | much less affected | immediate growth arrest | started to grow after some time | more susceptible | unable to resume growth |  |  |  | Increase in resistance by overexpression of graRS (pTXgraRS) in the graRS mutant (graRS::erm (pTXgraRS); from MIC values): approximately 2 fold; Increase in resistance by overexpression of graRS (pTXgraRS) in the WT (SA113 (pTXgraRS); from MIC values): approximately 2 fold; Growth of subculture challenged again (graRS mutant; new culture inoculated from 24-h graRS culture treated with polymyxin B): no growth retardation |
| Lysozyme | >50,000 μg/ml |  |  | >50,000 μg/ml | 10,000 μg/ml and 694 μM | 600 μg/ml and 41.6 μM | 2,000 μg/ml and 138.8 μM | 30 μg/ml and 2.08 μM | >50,000 μg/ml | >50,000 μg/ml | completely lysozyme resistant | only marginally affected |  | more sensitive |  | only marginally affected | highly susceptible | sensitive to the muramidase activity | Resistance at highest concentration (SA113; WT, at a concentration of 50 mg/ml): completely resistant; Resistance at highest concentration (graRS::erm; graRS mutant, at a concentration of 50 mg/ml): completely resistant; Sensitivity of oatA/graRS double mutant relative to oatA mutant (oatA::kan/graRS::erm; from MIC values): ~17 fold; Sensitivity of dltA single mutant relative to WT (dltA::spc; from MIC values): over 25 fold; Sensitivity of dltA single mutant relative to oatA single mutant (dltA::spc; from MIC values): 5 fold; Sensitivity of oatA/dltA double mutant relative to oatA single mutant (oatA::kan/dltA::spc; from MIC values): > 333 fold and 333 fold; Sensitivity of oatA/dltA double mutant relative to oatA/graRS double mutant (oatA::kan/dltA::spc; from MIC values): 20 fold; Susceptibility of growing culture (OD578nm) (oatA/dltA mutant): stays lysozyme sensitive even after 24 h; Hydrolysis of isolated PG (decrease in OD660nm) [2]: completely resistant; Hydrolysis of isolated PG (decrease in OD660nm) [3]: hydrolysed; Hydrolysis of isolated PG (decrease in OD660nm) [4]: not hydrolyzed |
